The values that follow come from patent publication US7928135B2, “Benzene, pyridine, and pyridazine derivatives” (Serenex, Inc., priority 2005, dated 2011).

This assay has as its system HSP-90 (heat shock protein 90). The assay is described as follows: Determination of affinity for HSP-90 (elution from purine affinity column, SDS-PAGE densitometry). It is filed as binding. More on the design: key: +++: very high; ++: high; +: moderate. The settings on record: elution of HSP-90 from purine affinity column with 20, 100 and 500 μM test compound. Here is the method: Affinity of test compounds for HSP-90 was determined as follows: Protein mixtures obtained from a variety of organ tissues (for example: spleen, liver and lung) were reversibly bound to a purine affinity column to capture purine-binding proteins, especially HSP-90. The purine affinity column was washed several times, and then eluted with 20 μM, 100 μM, and 500 μM of test compound. Compounds of Formula I elute HP-90 in a dose-dependent manner vs. a control elution using dimethylsulfoxide. The elution profile of Formula I compounds was determined by 1-dimensional SDS polyacrylamide gel electrophoresis. Gels were stained with a fluorescent stain such as sypro ruby (a highly sensitive fluorescent protein stain that can readily detect less than 1 fmol of total protein, i.e., less than 0.04 ng for a 40 kDa protein) or silver nitrate. The gels were imaged using a standard flat bed gel imager and the amount of protein estimated by densitometry. The percent of HSP-90 protein eluted from the column at each concentration was determined and IC50 values were calculated from these estimates. The identity of a band containing HSP-90 was determined by protein sequencing using mass spectroscopy.
Compounds of the invention are inhibitors of HSP-90 (heat shock protein 90). Several exemplary compounds useful in the methods of the invention are listed below.

SMILES strings stand for the structures.

Take `CC1(C)CC(=O)c2c(C(F)(F)F)nn(-c3ccc(C(N)=O)c(NCC(O)CO)c3)c2C1` (centres unmarked) [Compound 30, 2-(2,3-Dihydroxy-propylamino)-4-(6,6-dimethyl-4-oxo-3-trifluoromethyl-4,5,6,7-tetrahydro-indazol-1-yl)-benzamide]: the “relative binding affinity to HSP-90” value is listed as “++”.
With `CC1(C)CC(=O)c2c(C(F)F)nn(-c3ccc(C(N)=O)c(NC4CCSCC4)c3)c2C1` [Compound 32, 4-(3-Difluoromethyl-6,6-dimethyl-4-oxo-4,5,6,7-tetrahydro-indazol-1-yl)-2-(tetrahydro-thiopyran-4-ylamino)-benzamide], the “relative binding affinity to HSP-90” value is on record as “+++”.
With `Cc1nn(-c2ccc(C(N)=O)c(NCCCN3CCCC3=O)c2)c2c1C(=O)CC(C)(C)C2` [Compound 34, 2-[3-(2-Oxo-pyrrolidin-1-yl)-propylamino]-4-(3,6,6-trimethyl-4-oxo-4,5,6,7-tetrahydro-indazol-1-yl)-benzamide], the “relative binding affinity to HSP-90” value is on record as “++”.
Take `C=CCNc1cc(-n2cc(C)c3c2CC(C)(C)CC3=O)ccc1C(N)=O` [Compound 50, 2-(allylamino)-4-(3,6,6-trimethyl-4-oxo-4,5,6,7-tetrahydroindol-1-yl)benzamide]: the “relative binding affinity to HSP-90” value is given as “+++”.
On to `Cc1cn(-c2ccc(C(N)=O)c(NC3CCc4ccccc43)c2)c2c1C(=O)CC(C)(C)C2` (centres unmarked) [Compound 54, 2-(2,3-dihydro-1H-inden-1-ylamino)-4-(3,6,6-trimethyl-4-oxo-4,5,6,7-tetrahydroindol-1-yl)benzamide], for which the “relative binding affinity to HSP-90” value is on record as “+”.
Regarding `Cc1cc2c(n1-c1ccc(C(N)=O)c(Nc3ccc(Cl)cc3)c1)CC(C)(C)CC2=O` [Compound 73, 2-[(4-chlorophenyl)amino]-4-(2,6,6-trimethyl-4-oxo-4,5,6,7-tetrahydro-1H-indol-1-yl)benzamide], the “relative binding affinity to HSP-90” value is given as “+”.
As for `Cc1cc2c(n1-c1cnc(C(N)=O)c(Nc3ccccc3)c1)CC(C)(C)CC2=O` [Compound 75, 3-anilino-5-(2,6,6-trimethyl-4-oxo-4,5,6,7-tetrahydro-1H-indol-1-yl)pyridine-2-carboxamide], the “relative binding affinity to HSP-90” value is “+++”.
To `Cc1cc2c(n1-c1ccc(C(N)=O)c(N[C@H](C(=O)O)C(C)C)c1)CC(C)(C)CC2=O` [Compound 78, N-[2-(aminocarbonyl)-5-(2,6,6-trimethyl-4-oxo-4,5,6,7-tetrahydro-1H-indol-1-yl)phenyl]-L-valine] belongs “+”; to `Cc1cc2c(n1-c1ccc(C(N)=O)c(N3CCOCC3)c1)CC(C)(C)CC2=O` [Compound 79, 2-morpholin-4-yl-4-(2,6,6-trimethyl-4-oxo-4,5,6,7-tetrahydro-1H-indol-1-yl)benzamide], “+”; to `Cc1cc2c(n1-c1ccc(C(N)=O)c(-n3ccnc3)c1)CC(C)(C)CC2=O` [Compound 80, 2-(1H-imidazol-1-yl)-4-(2,6,6-trimethyl-4-oxo-4,5,6,7-tetrahydro-1H-indol-1-yl)benzamide], “+”.
With `CCn1nccc1Nc1cc(-n2c(C)cc3c2CC(C)(C)CC3=O)ccc1C(N)=O` [Compound 83, 2-[(1-ethyl-1H-pyrazol-5-yl)amino]-4-(2,6,6-trimethyl-4-oxo-4,5,6,7-tetrahydro-1H-indol-1-yl)benzamide], the “relative binding affinity to HSP-90” value is listed as “+++”.
To `COc1cc(Nc2cc(-n3ccc4c3CCCC4=O)ccc2C(N)=O)cc(OC)c1OC` [Compound 86, 4-(4-oxo-4,5,6,7-tetrahydro-1H-indol-1-yl)-2-[(3,4,5-trimethoxyphenyl)amino]benzamide] belongs “++”; to `COc1ccc(Nc2cc(-n3c(C)cc4c3CC(C)(C)CC4=O)ccc2C(N)=O)cn1` [Compound 87, 2-[(6-methoxypyridin-3-yl)amino]-4-(2,6,6-trimethyl-4-oxo-4,5,6,7-tetrahydro-1H-indol-1-yl)benzamide], “++”; to `C=CCNc1cc(-n2ccc3c2CCCC3=O)ccc1C(N)=O` [Compound 88, 2-(allylamino)-4-(4-oxo-4,5,6,7-tetrahydro-1H-indol-1-yl)benzamide], “++”.
As for `C=CCNc1cc(-n2c(C)c(C)c3c2CCCC3=O)ccc1C(N)=O` [Compound 91, 2-(allylamino)-4-(2,3-dimethyl-4-oxo-4,5,6,7-tetrahydro-1H-indol-1-yl)benzamide], the “relative binding affinity to HSP-90” value is “++”.
Regarding `COCCNc1cc(-n2c(C)c(C)c3c2CCCC3=O)ccc1C(N)=O` [Compound 92, 4-(2,3-dimethyl-4-oxo-4,5,6,7-tetrahydro-1H-indol-1-yl)-2-[(2-methoxyethyl)amino]benzamide], the “relative binding affinity to HSP-90” value is “++”.
To `COCCNc1cc(-n2nc(C)c3c2CC(C)(C)CC3=O)ccc1C(N)=O` [Compound 95, 2-[(2-methoxyethyl)amino]-4-(3,6,6-trimethyl-4-oxo-4,5,6,7-tetrahydro-1H-indazol-1-yl)benzamide] belongs “+++”; to `Cc1cn(-c2ccc(C(N)=O)c(NCCN3CCOCC3)c2)c2c1C(=O)CC(C)(C)C2` [Compound 96, 2-[(2-morpholin-4-ylethyl)amino]-4-(3,6,6-trimethyl-4-oxo-4,5,6,7-tetrahydro-1H-indol-1-yl)benzamide], “+++”; to `COc1cc(Nc2cc(-n3nc(C(F)(F)F)c4c3CC(C)(C)CC4=O)ccc2C(N)=O)cc(OC)c1OC` [Compound 107, 4-[6,6-dimethyl-4-oxo-3-(trifluoromethyl)-4,5,6,7-tetrahydro-1H-indazol-1-yl]-2-[(3,4,5-trimethoxyphenyl)amino]benzamide], “++”.
To `Cc1cn(-c2ccc(C(N)=O)c(NC3CCN(C(=O)CN(C)C)CC3)c2)c2c1C(=O)CC(C)(C)C2` [Compound 109, 2-{[1-(N,N-dimethylglycyl)piperidin-4-yl]amino}-4-(3,6,6-trimethyl-4-oxo-4,5,6,7-tetrahydro-1H-indol-1-yl)benzamide] belongs “++”.
With `CC(=O)OCC(=O)NCCNc1cc(-n2cc(C)c3c2CC(C)(C)CC3=O)ccc1C(N)=O` [Compound 111, 2-[(2-{[2-(aminocarbonyl)-5-(3,6,6-trimethyl-4-oxo-4,5,6,7-tetrahydro-1H-indol-1-yl)phenyl]amino}ethyl)amino]-2-oxoethyl acetate], the “relative binding affinity to HSP-90” value was “+++”.
In the case of `Cc1nn(-c2ccc(C(N)=O)c(Nc3ccc(=O)[nH]c3)c2)c2c1C(=O)CC(C)(C)C2` [Compound 115, 2-[(6-oxo-1,6-dihydropyridin-3-yl)amino]-4-(3,6,6-trimethyl-4-oxo-4,5,6,7-tetrahydro-1H-indazol-1-yl)benzamide], the “relative binding affinity to HSP-90” value is “+++”.
On to `Cc1nn(-c2ccc(C(N)=O)c(NC3CN(S(C)(=O)=O)C3)c2)c2c1C(=O)CC(C)(C)C2` [Compound 131, 2-{[1-(methylsulfonyl)azetidin-3-yl]amino}-4-(3,6,6-trimethyl-4-oxo-4,5,6,7-tetrahydro-1H-indazol-1-yl)benzamide], for which the “relative binding affinity to HSP-90” value is “++”.
In the case of `Cc1nn(-c2ccc(C(N)=O)c(NCCCS(C)(=O)=O)c2)c2c1C(=O)CC(C)(C)C2` [Compound 132, 2-{[3-(methylsulfonyl)propyl]amino}-4-(3,6,6-trimethyl-4-oxo-4,5,6,7-tetrahydro-1H-indazol-1-yl)benzamide], the “relative binding affinity to HSP-90” value is listed as “+++”.
To `C=CCCc1nn(-c2ccc(C(N)=O)cc2)c2c1C(=O)CC(C)(C)C2` [Compound 134, 4-(3-but-3-en-1-yl-6,6-dimethyl-4-oxo-4,5,6,7-tetrahydro-1H-indazol-1-yl)benzamide] belongs “++”.
Turning to `Cc1nn(-c2ccc(C(N)=O)c(N[C@H]3CCN(S(C)(=O)=O)C3)c2)c2c1C(=O)CC(C)(C)C2` [Compound 135, 2-{[(3S)-1-(methylsulfonyl)pyrrolidin-3-yl]amino}-4-(3,6,6-trimethyl-4-oxo-4,5,6,7-tetrahydro-1H-indazol-1-yl)benzamide], the “relative binding affinity to HSP-90” value was “+++”.
